In patent publication US20250101038A1, “COMPOUNDS” (priority 2021, published 2025):
Values joined by “and” are separate entries in the source; they are usually repeats but may differ in a detail not shown here. Equal entries are not always repeated. Where two headings read alike, the source gives them in different places.

What was measured:
[1] = target: T1, 5-HT2A receptor (Homo sapiens, UniProt P28223); assay: FLIPR Ca2+ flux functional assay, 5-HT2A; type: cell-based; conditions: agonist activity, Ca2+ flux, HEK293 cells
T1 construct: host or cells: HEK293

[2] = target: T2, 5-HT2B receptor (Homo sapiens, UniProt P41595); assay: cell-based; conditions: agonist activity, Ca2+ flux, CHO-K1 cells
T2 construct: host or cells: CHO-K1

[3] = target: T3, 5-HT2C receptor (Homo sapiens, UniProt P28335); assay: cell-based; conditions: agonist activity, Ca2+ flux, HEK293 cells
T3 construct: host or cells: HEK293
T3 sequence (P28335 33-458): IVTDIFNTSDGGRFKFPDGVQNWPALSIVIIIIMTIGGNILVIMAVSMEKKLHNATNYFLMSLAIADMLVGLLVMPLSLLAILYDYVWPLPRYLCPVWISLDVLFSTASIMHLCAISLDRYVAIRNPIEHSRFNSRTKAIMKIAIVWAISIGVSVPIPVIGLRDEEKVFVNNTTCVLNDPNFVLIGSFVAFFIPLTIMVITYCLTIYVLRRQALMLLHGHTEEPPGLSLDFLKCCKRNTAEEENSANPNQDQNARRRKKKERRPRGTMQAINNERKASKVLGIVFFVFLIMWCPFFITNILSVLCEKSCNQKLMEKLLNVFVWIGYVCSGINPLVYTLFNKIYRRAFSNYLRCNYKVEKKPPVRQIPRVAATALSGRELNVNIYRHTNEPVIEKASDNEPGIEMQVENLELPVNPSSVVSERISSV

[4] = In vivo pharmacokinetics, plasma and brain exposure after IP dosing; design: species or system male C57BL/6 mice; conditions: for B:P Ratio, Individual / Plasma Concentration, Individual / concentration at 0.5 h / concentration at 0.083 h / concentration at 4 h / Kp at 0.083 h / Kp at 0.5 h / Kp at 4 h: 10 mg/kg; for Kp at 0.083 h / Kp at 0.5 h / Kp at 4 h: brain/plasma; for Cmax / Tmax / AUC(0-inf) / half-life: mouse, male C57BL/6 mice; for AUC(0-inf): read-out: Plasma AUC0-inf; for half-life: read-out: Apparent T1/2 (converted)
Protocol: The systemic exposure of selected examples was studied in non-fasted male C57BL/6 mice weighing between 18.9-25.5 g. Mice had access to food and water ad libitum throughout the pre- and post-dose sampling period.
On the day of dosing, the formulation of each compound was prepared by dissolving solid compound in phosphate buffer saline (50 mM) using vortexing, creating colourless solutions (pH 6.4-6.5) for each compound.
Compounds were dosed to mice by IP injection (10 mL/kg dose volume via a 27G needle; n=9 mice per compound) and blood samples were collected at 5 and 30 min; 1, 2 and 4 h post-dose (n=3 mice per time point for each compound). A maximum of three blood samples were obtained from each mouse, with plasma samples being taken via submandibular bleed (approximately 120 μL). Once collected, blood samples were centrifuged immediately, supernatant plasma was removed, and stored at −80° C. until analysis by LCMS. In addition, at the 5 and 30 min and 4 h post-dose time points, the whole brain was rapidly removed from the carcass soon after the blood collection. The whole brains were blotted to remove excess blood, placed into pre-weighed polypropylene vials, and weighed. The brains were snap frozen in dry ice and subsequently stored frozen (−80° C.) until analysis.
Concentrations of test compound in plasma and tissue samples were determined using an LCMS/MS method validated for linearity, accuracy, precision, matrix factor and recovery (Table 2). Test compound standard solutions were diluted from a concentrated stock solution (32 mM in H2O) using 50% can in H2O (v/v) and a calibration curve was prepared in a matched matrix to the test samples.
Plasma: The plasma calibration curve was prepared by spiking aliquots of blank mouse plasma (25 μL) with test compound standard solutions (5 μL) and internal standard solution (5 μL of diazepam, 5 μg/mL in 50% acetonitrile in water). Test plasma samples (25 μL) were thawed, mixed, and then spiked with internal standard solution (5 μL). Plasma protein precipitation was performed by addition of acetonitrile (3-fold volume ratio) and thorough vortex mixing. Samples were centrifuged (RCF=9391×g) for 3 minutes and the supernatant (90 μL) was collected for analysis.
Tissue: Pre-weighed tissue samples (brain) were homogenised using a glass rod in buffer containing an EDTA/potassium fluoride solution (0.1 M/4 mg/mL) as a stabilisation cocktail to minimise the potential for ex vivo degradation (3 mL cocktail/g tissue). The tissue homogenate was briefly centrifuged (RCF=79×g) for 10 seconds to separate the foam layer before transferring an aliquot of the tissue homogenate (200 μL) to a fresh Eppendorf tube for sample extraction. Calibration standards were prepared by spiking blank brain homogenate (200 μL) with the solution standards (10 μL) and the internal standard (10 μL). Study samples were similarly prepared, except that acetonitrile (10 μL) was added instead of solution standards to maintain the same volume. Protein precipitation was carried out by the addition of a 3-fold volume of acetonitrile, followed by vortex mixing and centrifugation (RCF=9391×g) for 3 min to recover the supernatant for analysis.
Replicate analysis: Triplicate analytical replicate (ARs) samples were prepared similarly to the standards for each sample type at three concentrations (50, 500 and 2,000 ng/ml) and repeat injections of these ARs were included throughout the analytical run to assess assay performance. The extraction of the test compound from the standards and ARs were conducted as described above.

[5] = 0.083 h, IP 10 mg/kg, individual mouse
[6] = 0.083 h, IP 10 mg/kg, individual mouse, read-out: Brain Parenchyma Concentration, Individual
[7] = 0.5 h, IP 10 mg/kg, individual mouse
[8] = 0.5 h, IP 10 mg/kg, individual mouse, read-out: Brain Parenchyma Concentration, Individual
[9] = 4 h, IP 10 mg/kg, individual mouse
[10] = 4 h, IP 10 mg/kg, individual mouse, read-out: Brain Parenchyma Concentration, Individual
[11] = male, C57BL/6, mouse, brain, ip, 0.083 h, n = 3, read-out: Brain Parenchyma Concentration, Mean ± SD
[12] = male, C57BL/6, mouse, brain, ip, 0.5 h, individual mouse, read-out: Brain Parenchyma Concentration, Individual
[13] = male, C57BL/6, mouse, brain, ip, 0.5 h, n = 3, read-out: Brain Parenchyma Concentration, Mean ± SD
[14] = male, C57BL/6, mouse, brain, ip, 4 h, n = 3, read-out: Brain Parenchyma Concentration, Mean ± SD
[15] = male, C57BL/6, mouse, ip, 0.083 h, individual mouse, read-out: B:P Ratio, Individual
[16] = male, C57BL/6, mouse, ip, 0.083 h, n = 3, read-out: B:P Ratio, Mean ± SD
[17] = male, C57BL/6, mouse, ip, 0.5 h, individual mouse, read-out: B:P Ratio, Individual
[18] = male, C57BL/6, mouse, ip, 0.5 h, n = 3, read-out: B:P Ratio, Mean ± SD
[19] = male, C57BL/6, mouse, ip, 4 h, individual mouse, read-out: B:P Ratio, Individual
[20] = male, C57BL/6, mouse, ip, 4 h, n = 3, read-out: B:P Ratio, Mean ± SD
[21] = male, C57BL/6, mouse, plasma, ip, 0.083 h, individual mouse, read-out: Plasma Concentration, Individual
[22] = male, C57BL/6, mouse, plasma, ip, 0.083 h, n = 3, read-out: Plasma Concentration, Mean ± SD
[23] = male, C57BL/6, mouse, plasma, ip, 0.5 h, individual mouse, read-out: Plasma Concentration, Individual
[24] = male, C57BL/6, mouse, plasma, ip, 0.5 h, n = 3, read-out: Plasma Concentration, Mean ± SD
[25] = male, C57BL/6, mouse, plasma, ip, 4 h, n = 3, read-out: Plasma Concentration, Mean ± SD

T1 sequence (P28223 whole entry): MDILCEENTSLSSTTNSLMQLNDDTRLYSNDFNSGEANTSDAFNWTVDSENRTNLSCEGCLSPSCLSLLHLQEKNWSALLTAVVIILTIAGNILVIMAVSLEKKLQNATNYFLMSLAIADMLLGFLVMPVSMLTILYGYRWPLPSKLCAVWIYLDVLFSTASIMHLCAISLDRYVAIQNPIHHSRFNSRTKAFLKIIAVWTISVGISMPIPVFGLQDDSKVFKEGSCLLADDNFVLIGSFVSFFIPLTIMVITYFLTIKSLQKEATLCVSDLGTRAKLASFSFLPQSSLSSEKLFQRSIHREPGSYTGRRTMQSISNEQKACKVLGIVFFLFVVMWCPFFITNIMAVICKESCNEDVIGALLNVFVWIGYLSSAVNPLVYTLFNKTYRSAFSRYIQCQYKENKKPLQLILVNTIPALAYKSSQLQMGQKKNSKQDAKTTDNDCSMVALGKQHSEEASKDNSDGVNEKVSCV
T2 sequence (P41595 whole entry): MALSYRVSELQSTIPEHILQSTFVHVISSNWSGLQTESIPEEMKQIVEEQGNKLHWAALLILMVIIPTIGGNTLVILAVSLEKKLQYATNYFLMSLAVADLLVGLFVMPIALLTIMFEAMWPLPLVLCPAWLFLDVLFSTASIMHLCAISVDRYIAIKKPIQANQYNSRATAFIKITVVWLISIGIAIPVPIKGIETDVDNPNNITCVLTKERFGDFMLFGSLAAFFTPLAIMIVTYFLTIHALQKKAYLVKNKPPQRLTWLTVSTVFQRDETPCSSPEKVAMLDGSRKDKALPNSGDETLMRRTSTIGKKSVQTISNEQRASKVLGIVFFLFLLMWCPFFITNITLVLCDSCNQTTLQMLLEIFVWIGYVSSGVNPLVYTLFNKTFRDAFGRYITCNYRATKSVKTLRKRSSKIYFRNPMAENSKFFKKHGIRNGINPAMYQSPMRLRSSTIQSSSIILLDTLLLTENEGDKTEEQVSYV

Row | SMILES | Emax [1] [%] | Emax [2] [%] | Emax [3] [%] | B:P Ratio, Individual [4, 5] | Plasma Concentration, Individual [4, 5] | concentration at 0.5 h [4, 6] | B:P Ratio, Individual [4, 7] | Plasma Concentration, Individual [4, 7] | concentration at 0.5 h [4, 8] | B:P Ratio, Individual [4, 9] | Plasma Concentration, Individual [4, 9] | concentration at 0.5 h [4, 10] | concentration at 0.083 h [4, 11] [µM] | concentration at 0.5 h [4, 12] [µM] | concentration at 0.5 h [4, 13] [µM] | concentration at 4 h [4, 14] [µM] | Kp at 0.083 h [4, 15] | Kp at 0.083 h [4, 16] | Kp at 0.5 h [4, 17] | Kp at 0.5 h [4, 18] | other results
1 | CCN(C)CCc1c[nH]c2ccc(OC)c(C)c12 [Example P-37, N-ethyl-2-(5-methoxy-4-methyl-1H-indol-3-yl)-N-methylethan-1-amine] | 80.3 | 30.9 | 53.1 | 6.9 and 8.6 | 2.21 µM and 2.12 µM | 31.6 µM and 15.2 µM and 18.1 µM | 18 and 16 | 1.15 µM and 1.48 µM | 20.6 µM and 24.3 µM | 15 | 0.0091 µM and 0.0104 µM | 0.134 µM and 0.152 µM | 21.6 ± 8.76 | 25.9 | 23.6 ± 2.74 | 0.129 ± 0.0255 | 9.4 | 8.3 ± 1.3 | 20 | 18 ± 2 | concentration at 4 h ([4]; male, C57BL/6, mouse, brain, ip, 4 h, individual mouse, read-out: Brain Parenchyma Concentration, Individual): 0.102 µM; Kp at 4 h [4, 19]: 13; Kp at 4 h [4, 20]: 14 ± 1.2; concentration at 0.083 h [4, 21]: 3.36 µM; concentration at 0.083 h [4, 22]: 2.56 ± 0.0691 µM; concentration at 0.5 h [4, 23]: 1.28 µM; concentration at 0.5 h [4, 24]: 1.3 ± 0.162 µM; concentration at 4 h ([4]; male, C57BL/6, mouse, plasma, ip, 4 h, individual mouse, read-out: Plasma Concentration, Individual): 0.0081 µM; concentration at 4 h [4, 25]: 0.0092 ± 0.0012 µM; Cmax ([4]; plasma, IP 10 mg/kg): 2.56 µM; Tmax ([4]; plasma, IP 10 mg/kg): 4.98 min; AUC(0-inf) ([4]; plasma, IP 10 mg/kg): 1.72 µM·h; half-life ([4]; IP 10 mg/kg, plasma): 30 min
2 | CCN(C)CCc1c[nH]c2c(C)cc(OC)cc12 [Example P-51, N-ethyl-2-(5-methoxy-7-methyl-1H-indol-3-yl)-N-methylethan-1-amine] | 69.2 | 0.85 | 57.3 | 6.1 and 4.0 | 5.38 µM and 7.55 µM | 33.0 µM and 30.4 µM | 11 and 9.2 | 4.49 µM and 3.79 µM | 49.3 µM and 35.0 µM | 8.4 and 8.7 | 0.0254 µM and 0.0505 µM and 0.111 µM | 0.230 µM and 0.424 µM and 0.958 µM | 30.7 ± 2.2 | 25.5 | 36.6 ± 12 | 0.538 ± 0.377 | 4.5 | 4.9 ± 1.1 | 7.4 | 9.2 ± 1.8 | concentration at 0.083 h ([4]; male, C57BL/6, mouse, brain, ip, 0.083 h, individual mouse, read-out: Brain Parenchyma Concentration, Individual): 28.6 µM; Kp at 4 h [4, 19]: 9.1; Kp at 4 h [4, 20]: 8.7 ± 0.33; concentration at 0.083 h [4, 21]: 6.37 µM; concentration at 0.083 h [4, 22]: 6.43 ± 1.09 µM; concentration at 0.5 h [4, 23]: 3.46 µM; concentration at 0.5 h [4, 24]: 3.91 ± 0.529 µM; concentration at 4 h [4, 25]: 0.0622 ± 0.0439 µM; Cmax ([4]; plasma, IP 10 mg/kg): 6.43 µM; Tmax ([4]; plasma, IP 10 mg/kg): 4.98 min; AUC(0-inf) ([4]; plasma, IP 10 mg/kg): 5.39 µM·h; half-life ([4]; IP 10 mg/kg, plasma): 36 min
